Measurements taken from patent US10918106B2, “Methods for hydraulic enhancement of crops” (Sound Agriculture Company, priority 2015, dated 2021).
“Also recorded” adds a separate entry of the source.

Key:
Type in all cases: in vivo
tested plant = test: Hydraulic enhancement test of plant growth regulators (gibberellins, cytokinins); conditions: for hydraulic enhancement by gibberellins: FIG. 16
Experimental: Specific combinations of plant growth regulators (PGRs) were used for hydraulic enhancement and increased harvest yield of crops. PGRs were tested to be co-applied with strigolactones and/or AB compounds (e.g., AB01). PGRs were also tested in the absence of strigolactones and/or AB compounds. […] PGRs were tested as a seed treatment, soil drench, granule formulation, or foliar spray. […] In another experiment, the effect of hydraulic enhancement was also tested with cytokinins, including kinetin, zeatin, 6-benzylaminopurine (6-BAP), diphenylurea, thidiazuron, and their chemical derivatives and analogs.

plant = test: Hydraulic enhancement test of ABA biosynthesis inhibitor fluridone; conditions: fluridone 1 μg (FIG. 15)
Experimental: Using this discovery, it could be reasoned that addition of inhibitors of ABA biosynthesis would result in increased hydraulic enhancement. In another experiment, fluridone was tested for its effect in hydraulic enhancement. Fluridone is an inhibitor of the phytoene destaturase, which is an upstream step in the synthesis of abscisic acid.

[1] = system: corn (Zea mays) seedlings; test: ex vivo hydraulic enhancement (xVHS) transpiration assay
Experimental: In this assay with corn (Zea mays), seedlings were grown in defined potting soil (in this case, Sunshine Mix #4) for 2 weeks until they were approximately 15 to 20 centimeters tall. Seedlings were then cut at the base of the stem and placed in individual tubes with defined volume of water (FIG. 4A). Hydraulic enhancing chemistry (for example, AB01) was present in the defined volume of water at various concentrations. Excised seedlings were placed in a defined temperature and humidity environment under continuous illumination, and water use was measured after 12, 18, or 24 hours. Using this assay, chemistry or other inputs that induce hydraulic enhancement can be tested and discovered. In this assay, 100 ng of AB01 in acetone was added to 2 week old corn seedlings and water use was monitored over 24 hours.

| Molecule | hydraulic enhancement by gibberellins (tested plant) | also measured |
| --- | --- | --- |
| c1ccc(CNc2ncnc3nc[nH]c23)cc1 [6-BAP, 6-benzylaminopurine] |  | hydraulic enhancement by cytokinin (tested plant; 1 μg (FIG. 17)): improved hydraulic enhancement; also recorded: elicit hydraulic enhancement |
| fluridone |  | effect on hydraulic enhancement (plant): improved hydraulic enhancement; also recorded: increase hydraulic enhancement |
| C=C1C[C@]23C[C@@]1(O)CC[C@H]2[C@@]12C=C[C@H](O)[C@@](C)(C(=O)O1)[C@H]2[C@@H]3C(=O)O [gibberellic acid] | improved hydraulic enhancement |  |
| C=C1C[C@]23C[C@@]1(O)CC[C@H]2[C@@]12CC[C@H](O)[C@@](C)(C(=O)O1)[C@H]2[C@@H]3C(=O)O [GA1] | hydraulic enhancement was elicited |  |
| C=C1C[C@]23C[C@@]1(O)CC[C@H]2[C@@]12C=C[C@H](O)[C@@](C)(C(=O)O1)[C@H]2[C@@H]3C(=O)O [GA3] | hydraulic enhancement was elicited |  |
| CC1=CC(Oc2c(C)occc2=O)OC1=O (stereo not drawn) [AB09, 2-methyl-3-((4-methyl-5-oxo-2,5-dihydrofuran-2-yl)oxy)-4H-pyran-4-one] |  | increase in transpiration ([1]; 10Ong added to the xVHS assay (FIG. 12)): 40%; ability to induce hydraulic enhancement ([1]; screen of AB compounds/strigolactones (FIG. 12)): able to induce hydraulic enhancement; also recorded: resulted in hydraulic enhancement of crop plants |
| CC1=CC(=O)CC(C)(C)[C@@]1(O)/C=C/C(C)=C\C(=O)O [abscisic acid] |  | effect on hydraulic enhancement in the xVHS assay ([1]; addition of abscisic acid (FIG. 14)): inhibited hydraulic enhancement; also recorded: reduce the hydraulic enhancement |
| C=C1C[C@]23C[C@H]1CC[C@H]2[C@@]12CC[C@H](O)[C@@](C)(C(=O)O1)[C@H]2[C@@H]3C(=O)O [GA4] | hydraulic enhancement was elicited |  |
| C=C1C[C@@]23CC[C@@H]4C(C)(C)CCC[C@@]4(C)[C@@H]2CC[C@@H]1C3 [ent-kaurene] | hydraulic enhancement was elicited |  |
| C=C1C[C@]23C[C@H]1CC[C@H]2[C@@]12C=C[C@H](O)[C@@](C)(C(=O)O1)[C@H]2[C@@H]3C(=O)O [GA7] | hydraulic enhancement was elicited |  |
| CC1CC23CC1CCC2C1(C)CCCC(C)(C)C1C3C (stereo not drawn) [ent-gibberellane] | hydraulic enhancement was elicited |  |
